Columns and labels:
Assay type in all cases: in vivo
[1] = test system: Hordeum vulgare; experiment: Preemergence herbicidal activity (Example 67); set-up: herbicide rating, HORVW: scale not given here; details: pre, 800 g/ha; for herbicide rating, HORVW: rated about 1-3 weeks after treatment
Protocol: (§1) Herbicidal evaluation of compounds of the invention is conducted on the following plant species:
(§2) The soil is a prepared horticultural substrate containing 30% peat, 20% volcanic clay, 30% bark residues and 20% polyamide/styromull in a 1:3 mixture with loamy sand. Test solutions are prepared by dissolving the test compound in acetone containing 0.5% of an alkylphenol/ethylene oxide condensate under the trademark, TRITON® X-155, and diluting with water as needed. The test solutions are applied as a spray to the 3-6 week old seedling plants at dose rates corresponding to 800g/ha in a volume equivalent to 400 L/ha. A pneumatic spraying device employing a Teejet nozzle SS 8002E operating at 3 bar is used for a predetermined time. After spraying, the treated plants are placed on greenhouse benches and cared for in a manner commensurate with conventional greenhouse practice. After 10-21 days, the treated plants are evaluated and rated according to the rating system provided below.
(§3) The soil surface is then sprayed with test solutions as described in the postemergence evaluation hereinabove. After spraying, the treated cups are placed on greenhouse benches and cared for in the manner commensurate with conventional greenhouse practice. About 1-3 weeks after treatment the cups are evaluated and rated according to the rating system provided hereinabove.

[2] = test system: Alopecurus myosuroides; experiment: Preemergence herbicidal activity (Example 67); set-up: herbicide rating, ALOMY: scale not given here; details: pre, 800 g/ha; for herbicide rating, ALOMY: rated about 1-3 weeks after treatment
Protocol: as §1, §2, §3

[3] = test system: Abutilon theophrasti; experiment: Preemergence herbicidal activity (Example 67); details: pre, 800 g/ha; for herbicide rating, ABUTH: rated about 1-3 weeks after treatment
Protocol: as §1, §2, §3

[4] = test system: Galium aparine; experiment: Preemergence herbicidal activity (Example 67); details: pre, 800 g/ha; for herbicide rating, GALAP: rated about 1-3 weeks after treatment
Protocol: as §1, §2, §3

[5] = test system: Veronica persica; experiment: Preemergence herbicidal activity (Example 67); details: pre, 800 g/ha; for herbicide rating, VERPE: rated about 1-3 weeks after treatment
Protocol: as §1, §2, §3

[6] = test system: Amaranthus retroflexus; experiment: Preemergence herbicidal activity (Example 67); details: pre, 800 g/ha; for herbicide rating, AMARE: rated about 1-3 weeks after treatment
Protocol: as §1, §2, §3

[7] = test system: Chenopodium album; experiment: Preemergence herbicidal activity (Example 67); details: pre, 800 g/ha; for herbicide rating, CHEAL: rated about 1-3 weeks after treatment
Protocol: as §1, §2, §3

[8] = test system: Zea mays; experiment: Preemergence herbicidal activity (Example 67); details: pre, 800 g/ha; for herbicide rating, ZEAMX: rated about 1-3 weeks after treatment
Protocol: as §1, §2, §3

[9] = test system: Ipomoea hederacea; experiment: Preemergence herbicidal activity (Example 67); details: pre, 800 g/ha; for herbicide rating, IPOHE: rated about 1-3 weeks after treatment
Protocol: as §1, §2, §3

[10] = test system: Helianthus annuus; experiment: Preemergence herbicidal activity (Example 67); details: pre, 800 g/ha; for herbicide rating, HELAN: rated about 1-3 weeks after treatment
Protocol: as §1, §2, §3

[11] = test system: Triticum aestivum; experiment: Preemergence herbicidal activity (Example 67); set-up: herbicide rating, TRZAW: scale not given here; details: pre, 800 g/ha; for herbicide rating, TRZAW: rated about 1-3 weeks after treatment
Protocol: as §1, §2, §3

[12] = test system: Setaria viridis; experiment: Preemergence herbicidal activity (Example 67); set-up: herbicide rating, SETVI: scale not given here; details: pre, 800 g/ha; for herbicide rating, SETVI: rated about 1-3 weeks after treatment
Protocol: as §1, §2, §3

[13] = test system: Abutilon theophrasti; experiment: Postemergence herbicidal activity (Example 67); details: pos, 800 g/ha; for herbicide rating, ABUTH: rated after 10-21 days
Protocol: as §1, §2

[14] = test system: Galium aparine; experiment: Postemergence herbicidal activity (Example 67); details: pos, 800 g/ha; for herbicide rating, GALAP: rated after 10-21 days
Protocol: as §1, §2

[15] = test system: Setaria viridis; experiment: Postemergence herbicidal activity (Example 67); details: pos, 800 g/ha; for herbicide rating, SETVI: rated after 10-21 days
Protocol: as §1, §2

[16] = test system: Hordeum vulgare; experiment: Postemergence herbicidal activity (Example 67); details: pos, 800 g/ha; for herbicide rating, HORVW: rated after 10-21 days
Protocol: as §1, §2

[17] = test system: Veronica persica; experiment: Postemergence herbicidal activity (Example 67); details: pos, 800 g/ha; for herbicide rating, VERPE: rated after 10-21 days
Protocol: as §1, §2

[18] = test system: Amaranthus retroflexus; experiment: Postemergence herbicidal activity (Example 67); details: pos, 800 g/ha; for herbicide rating, AMARE: rated after 10-21 days
Protocol: as §1, §2

[19] = test system: Triticum aestivum; experiment: Postemergence herbicidal activity (Example 67); details: pos, 800 g/ha; for herbicide rating, TRZAW: rated after 10-21 days
Protocol: as §1, §2

[20] = test system: Chenopodium album; experiment: Postemergence herbicidal activity (Example 67); details: pos, 800 g/ha; for herbicide rating, CHEAL: rated after 10-21 days
Protocol: as §1, §2

[21] = test system: Zea mays; experiment: Postemergence herbicidal activity (Example 67); details: pos, 800 g/ha; for herbicide rating, ZEAMX: rated after 10-21 days
Protocol: as §1, §2

[22] = test system: Alopecurus myosuroides; experiment: Postemergence herbicidal activity (Example 67); details: pos, 800 g/ha; for herbicide rating, ALOMY: rated after 10-21 days
Protocol: as §1, §2

[23] = test system: Ipomoea hederacea; experiment: Postemergence herbicidal activity (Example 67); details: pos, 800 g/ha; for herbicide rating, IPOHE: rated after 10-21 days
Protocol: as §1, §2

[24] = test system: Helianthus annuus; experiment: Postemergence herbicidal activity (Example 67); details: pos, 800 g/ha; for herbicide rating, HELAN: rated after 10-21 days
Protocol: as §1, §2

CC(NC(=O)c1nc(-c2ccc(Cl)cc2)ns1)c1cccs1 (racemic) [Example 26]
0: herbicide rating, HORVW [1] | herbicide rating, ALOMY [2] | herbicide rating, ABUTH [3] | herbicide rating, GALAP [4] | herbicide rating, AMARE [6] | herbicide rating, ZEAMX [8] | herbicide rating, IPOHE [9] | herbicide rating, HELAN [10] | herbicide rating, TRZAW [11] | herbicide rating, SETVI [12]
2 (6-15%): herbicide rating, VERPE [5] | herbicide rating, TRZAW [19] | herbicide rating, ALOMY [22]
5 (45-64%): herbicide rating, ABUTH [13] | herbicide rating, GALAP [14] | herbicide rating, SETVI [15] | herbicide rating, CHEAL [20]
4 (30-44%): herbicide rating, VERPE [17] | herbicide rating, ZEAMX [21]
3 (16-29%): herbicide rating, CHEAL [7] | herbicide rating, HORVW [16]
7 (80-90%): herbicide rating, HELAN [24]
6 (65-79%): herbicide rating, AMARE [18] | herbicide rating, IPOHE [23]

COc1ccc(-c2nsc(C(=O)N[C@@H](C)c3ccccc3)n2)cc1 [Example 2, (S)-3-(4-Methoxyphenyl)-[1,2,4]thiadiazole-5-carboxylic acid (1-phenylethyl)amide]
0: herbicide rating, HORVW [1] | herbicide rating, ALOMY [2] | herbicide rating, ABUTH [3] | herbicide rating, GALAP [4] | herbicide rating, VERPE [5] | herbicide rating, AMARE [6] | herbicide rating, CHEAL [7] | herbicide rating, ZEAMX [8] | herbicide rating, HELAN [10] | herbicide rating, TRZAW [11] | herbicide rating, SETVI [12] | herbicide rating, GALAP [14] | herbicide rating, VERPE [17] | herbicide rating, AMARE [18]
1 (1-5%): herbicide rating, ABUTH [13] | herbicide rating, ZEAMX [21] | herbicide rating, HELAN [24]
2 (6-15%): herbicide rating, HORVW [16] | herbicide rating, TRZAW [19] | herbicide rating, ALOMY [22] | herbicide rating, IPOHE [23]
5 (45-64%): herbicide rating, IPOHE [9] | herbicide rating, SETVI [15]
3 (16-29%): herbicide rating, CHEAL [20]

COc1ccc(-c2nc(C(=O)NC(C)c3cccs3)ns2)cc1 (racemic) [Example 51, (R/S)-5-(4-Methoxyphenyl)-[1,2,4]thiadiazole-3-carboxylic acid, [1-(2-thienyl)ethyl]amide]
1 (1-5%): HEL AN rating [10]
6 (65-79%): ABU TH rating [13] | GAL AP rating [14]
8 (91-99%): SET VI rating [15] | VER PE rating [17] | IPO HE rating [23] | HEL AN rating [24]
5 (45-64%): AMA RE rating [6] | HOR VW rating [16] | ZEA MX rating [21] | ALO MY rating [22]
0: GAL AP rating [4] | VER PE rating [5] | CHE AL rating [7] | ZEA MX rating [8] | IPO HE rating [9] | SET VI rating [12]
3 (16-29%): ALO MY rating [2] | ABU TH rating [3] | TRZ AW rating [19]
2 (6-15%): HOR VW rating [1] | TRZ AW rating [11]
4 (30-44%): AMA RE rating [18] | CHE AL rating [20]

Cc1ccc(-c2nc(C(=O)NC(C)c3cccs3)ns2)cc1 (racemic) [Example 41]
1 (1-5%): ABU TH rating [13]
0: HOR VW rating [1] | ALO MY rating [2] | ABU TH rating [3] | GAL AP rating [4] | AMA RE rating [6] | IPO HE rating [9] | HEL AN rating [10] | TRZ AW rating [11] | SET VI rating [12] | VER PE rating [17]
2 (6-15%): HOR VW rating [16] | TRZ AW rating [19] | ZEA MX rating [21] | ALO MY rating [22]
8 (91-99%): SET VI rating [15]
3 (16-29%): VER PE rating [5] | CHE AL rating [7] | GAL AP rating [14] | AMA RE rating [18] | IPO HE rating [23]
4 (30-44%): ZEA MX rating [8]
5 (45-64%): CHE AL rating [20] | HEL AN rating [24]
